The record followed here is ChEMBL document CHEMBL2074027, “Polyaromatic alkaloids from marine invertebrates as cytotoxic compounds and inhibitors of multidrug resistance caused by P-glycoprotein” (Br J Cancer, 1996).

Each structure is given as a SMILES string.

For this data set, the target named is ATP-dependent translocase ABCB1 (Homo sapiens, UniProt P08183). The data set can be described thus: TP_TRANSPORTER: inhibition of Rhodamine 123 efflux (R123: 20 uM, Lamellarin I: 10 uM) in Lo Vo/Dx cells. It is filed as functional, cell-based.
ATP-dependent translocase ABCB1, sequence (P08183 whole entry): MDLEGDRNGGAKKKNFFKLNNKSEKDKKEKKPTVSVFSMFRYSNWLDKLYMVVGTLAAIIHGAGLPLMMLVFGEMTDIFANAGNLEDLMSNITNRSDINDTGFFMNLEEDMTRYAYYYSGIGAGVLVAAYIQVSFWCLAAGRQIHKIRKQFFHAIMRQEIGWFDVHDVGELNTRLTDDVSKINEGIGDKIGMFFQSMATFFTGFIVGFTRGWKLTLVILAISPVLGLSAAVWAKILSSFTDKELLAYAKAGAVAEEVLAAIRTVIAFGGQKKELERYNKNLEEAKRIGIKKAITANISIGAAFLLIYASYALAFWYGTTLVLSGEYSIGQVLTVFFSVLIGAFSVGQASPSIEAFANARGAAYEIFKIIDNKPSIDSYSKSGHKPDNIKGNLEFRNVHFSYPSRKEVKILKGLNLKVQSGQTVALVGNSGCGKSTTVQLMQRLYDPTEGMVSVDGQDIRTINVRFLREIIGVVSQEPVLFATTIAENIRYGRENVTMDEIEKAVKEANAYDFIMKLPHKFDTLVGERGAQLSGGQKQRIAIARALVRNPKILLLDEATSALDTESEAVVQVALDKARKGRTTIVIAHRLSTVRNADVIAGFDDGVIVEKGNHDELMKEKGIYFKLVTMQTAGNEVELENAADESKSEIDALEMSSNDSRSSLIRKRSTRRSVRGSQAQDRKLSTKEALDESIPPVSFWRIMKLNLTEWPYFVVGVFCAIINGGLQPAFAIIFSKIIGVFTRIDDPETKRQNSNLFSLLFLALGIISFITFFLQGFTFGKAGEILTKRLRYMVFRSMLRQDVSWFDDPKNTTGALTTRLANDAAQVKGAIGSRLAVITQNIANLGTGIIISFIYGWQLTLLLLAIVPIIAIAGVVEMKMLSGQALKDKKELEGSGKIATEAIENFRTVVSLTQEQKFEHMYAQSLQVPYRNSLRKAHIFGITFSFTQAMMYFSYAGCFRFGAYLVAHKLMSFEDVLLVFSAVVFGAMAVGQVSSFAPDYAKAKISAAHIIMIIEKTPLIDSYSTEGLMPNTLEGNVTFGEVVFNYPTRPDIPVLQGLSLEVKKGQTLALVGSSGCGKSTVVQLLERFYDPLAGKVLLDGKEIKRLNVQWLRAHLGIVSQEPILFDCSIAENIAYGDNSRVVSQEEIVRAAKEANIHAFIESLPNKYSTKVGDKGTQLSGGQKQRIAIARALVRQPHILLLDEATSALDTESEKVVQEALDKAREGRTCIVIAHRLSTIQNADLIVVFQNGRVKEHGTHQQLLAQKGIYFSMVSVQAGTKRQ

For `COc1cc2c(cc1O)OCc1c-2c(-c2ccc(OC)c(OC)c2)c2n1CCc1c-2cc(OC)c(OC)c1OC` [LAMELLARIN I], the Activity entry is “inhibitor [+]”.
